# The source made the active and inactive calls. No cut-off for these calls is given here.
# Tests used:
# Cryptococcus neoformans [1] = assay: Antifungal activity against Cryptococcus neoformans H99 after 48 hrs by growth curve assay; type: functional; settings: for MIC80: var grubii H99 
# [2] = Solubility of the compound; type: physicochemical
# Cryptococcus gattii = assay: Antifungal activity against Cryptococcus gattii ATCC 14116 after 72 hrs by spectrophotometery; settings: ATCC 14116, 72 h
# Cryptococcus neoformans [3] = assay: Antifungal activity against Cryptococcus neoformans H99 assessed as inhibition of microbial growth at 8 ug/ml after 12 to 48 hrs by growth curve assay; type: functional; settings: var grubii H99, read-out: GI
# Cryptococcus neoformans [4] = assay: Antifungal activity against Cryptococcus neoformans H99 after 72 hrs by growth curve assay; type: functional; settings: var grubii H99 
# Nakaseomyces glabratus = assay: Antifungal activity against Candida glabrata 8535 after 48 hrs by spectrophotometery; type: functional; settings: Nakaseomyces glabratus, 8535, 48 h
# Cryptococcus neoformans [5] = assay: Antibiofilm activity against Cryptococcus neoformans H99 at 16 ug/ml after 90 mins by XTT assay; type: functional, organism-based; settings: var grubii H99
# [6] = Protein binding in mouse plasma; type: ADME, cell-free
# HUVEC = assay: Cytotoxicity against human HUVEC; type: cell-based
# [7] = Clearance in ICR mouse liver microsomes at 1 uM measured up to 45 mins in presence of NADPH by LC-MS/MS analysis; type: ADME, Microsome; settings: 0.75 h
# Cryptococcus neoformans [8] = assay: Inhibition of melanin production in Cryptococcus neoformans H99 at 2.5 ug/ml; type: functional, organism-based; settings: var grubii H99
# Trichophyton rubrum = assay: Antifungal activity against Trichophyton rubrum TIA after 48 hrs by spectrophotometery; type: functional
# Cryptococcus neoformans [9] = assay: Antifungal activity against Cryptococcus neoformans ATCC 34877 after 72 hrs by spectrophotometery; type: functional; settings: ATCC 34877, 72 h
# Candida parapsilosis = assay: Antifungal activity against Candida parapsilosis 5008 after 48 hrs by spectrophotometery; type: functional; settings: Lodderomyces parapsilosis, 5008, 48 h
# Candida albicans [10] = assay: Antifungal activity against Candida albicans 7781 after 48 hrs by spectrophotometery; type: functional; settings: Candida albicans, 7781, 48 h
# Nannizzia gypsea = assay: Antifungal activity against Microsporum gypseum MZC after 48 hrs by spectrophotometery; type: functional
# Cryptococcus neoformans [11] = assay: Inhibition of urease production in Cryptococcus neoformans H99 at 10 ug/ml; type: functional, organism-based; settings: var grubii H99
# Aspergillus fumigatus = assay: Antifungal activity against Aspergillus fumigatus 7544 after 48 hrs by spectrophotometery; type: functional; settings: Aspergillus fumigatus, 7544, 48 h
# [12] = Half life in ICR mouse liver microsomes at 1 uM measured up to 45 mins in presence of NADPH by LC-MS/MS analysis; type: ADME, Microsome
# Candida albicans [13] = assay: Antifungal activity against Candida albicans 0304103 after 48 hrs by spectrophotometery; type: functional; settings: Candida albicans, 0304103, 48 h
SMILES,MIC80 (Cryptococcus neoformans [1]) [µg/mL],further results
COc1ccc(OCCCn2c3c(c4ccccc42)CCNC3)cc1.O=C(O)C(F)(F)F,16,–
COc1cccc(OCCCn2c3c(c4ccccc42)CCNC3)c1.O=C(O)C(F)(F)F,16,–
Cc1ccc2c3c(n(CCCOc4ccc(Cl)cc4)c2c1)CNCC3.O=C(O)C(F)(F)F,2,–
CC1CCCN(CCCn2c3c(c4ccccc42)CCNC3)C1 (configuration not stated),32,–
Clc1ccccc1NCCCn1c2c(c3ccccc31)CCNC2.O=C(O)C(F)(F)F,8,–
Fc1cccc2c1c1c(n2CCCOc2ccc(Cl)cc2)CNCC1.O=C(O)C(F)(F)F,4,–
Clc1ccc(OCCCn2c3c(c4cccc(Br)c42)CCNC3)cc1.O=C(O)C(F)(F)F,4,–
Fc1ccc(NCCCn2c3c(c4ccccc42)CCNC3)cc1.O=C(O)C(F)(F)F,16,–
COc1ccc(NCCCn2c3c(c4ccccc42)CCNC3)cc1.O=C(O)C(F)(F)F,32,–
c1ccc(N2CCN(CCCn3c4c(c5ccccc53)CCNC4)CC2)cc1,32,–
Clc1cccc(OCCCn2c3c(c4ccccc42)CCNC3)c1.O=C(O)C(F)(F)F,4,–
Clc1ccc(OCCCn2c3c(c4ccc(Br)cc42)CCNC3)cc1.O=C(O)C(F)(F)F,2,–
Clc1ccc(OCCCn2c3c(c4ccccc42)CCNC3)cc1.O=C(O)C(F)(F)F,4,–
c1ccc2c(c1)c1c(n2CCCNC2CCCC2)CNCC1,64,–
CN(C)CCn1c2c(c3ccccc31)CCNC2,64,–
Clc1ccc(OCCCn2c3c(c4cc(Br)ccc42)CCNC3)cc1.O=C(O)C(F)(F)F,0.5,solubility [2]: 19.3 µg/mL

SMILES,MIC80 (Cryptococcus neoformans [1]) [µg/mL],further results
COc1cccc2c3c(n(CCCOc4ccc(Cl)cc4)c12)CNCC3.O=C(O)C(F)(F)F,4,–
Clc1ccc(NCCCn2c3c(c4ccccc42)CCNC3)cc1.O=C(O)C(F)(F)F,8,–
Brc1ccccc1NCCCn1c2c(c3ccccc31)CCNC2.O=C(O)C(F)(F)F,8,–
c1ccc2c(c1)c1c(n2CCCN2CCCCC2)CNCC1,64,–
Brc1ccc(OCCCn2c3c(c4ccccc42)CCNC3)cc1.O=C(O)C(F)(F)F,4,–
COc1ccccc1N1CCN(CCCn2c3c(c4ccccc42)CCNC3)CC1,64,–
Brc1ccccc1OCCCn1c2c(c3ccccc31)CCNC2.O=C(O)C(F)(F)F,8,–
Cc1ccc(NCCCn2c3c(c4ccccc42)CCNC3)cc1.O=C(O)C(F)(F)F,16,–
Cc1ccc2c(c1)c1c(n2CCCOc2ccc(Cl)cc2)CNCC1.O=C(O)C(F)(F)F,1,MIC80 (Cryptococcus gattii): 2 µg/mL; inhibition of growth at 8 µg/mL (Cryptococcus neoformans [3]): 100%; MIC80 (Cryptococcus neoformans [4]): 2 µg/mL; Activity (Cryptococcus neoformans [1]; var grubii H99): Dose-dependent effect; MIC80 (Nakaseomyces glabratus): 2 µg/mL; Activity (Cryptococcus neoformans [5]): Active; PPB [6]: Active; Activity (HUVEC): Non-Toxic; scaled CLint [7]: 477 mL/min/kg; inhibition (Cryptococcus neoformans [8]): Active; MIC80 (Trichophyton rubrum): 4 µg/mL; MIC80 (Cryptococcus neoformans [9]): 2 µg/mL; MIC80 (Candida parapsilosis): 8 µg/mL; MIC80 (Candida albicans [10]): 4 µg/mL; solubility [2]: 57.5 µg/mL; MIC80 (Nannizzia gypsea): 8 µg/mL; inhibition (Cryptococcus neoformans [11]): inactive; MIC80 (Aspergillus fumigatus): 8 µg/mL; half-life at 1 µM [12]: 11 min; MIC80 (Candida albicans [13]): 4 µg/mL
c1ccc(CN2CCN(CCCn3c4c(c5ccccc53)CCNC4)CC2)cc1,32,–
Clc1ccc(OCCCn2c3c(c4ccc(Cl)cc42)CCNC3)cc1.O=C(O)C(F)(F)F,2,–
COc1ccccc1NCCCn1c2c(c3ccccc31)CCNC2.O=C(O)C(F)(F)F,32,–
Fc1ccc2c3c(n(CCCOc4ccc(Cl)cc4)c2c1)CNCC3.O=C(O)C(F)(F)F,2,–
Cc1ccc(OCCCn2c3c(c4ccccc42)CCNC3)cc1.O=C(O)C(F)(F)F,8,–
Brc1ccc(NCCCn2c3c(c4ccccc42)CCNC3)cc1.O=C(O)C(F)(F)F,8,–
